Data: patent US12655116B2, “Substituted isophthalic acid diamides” (Bayer Aktiengesellschaft, priority 2020, dated 2026)

How the values were obtained:
[1] = tested on: ABUTH; experiment: Pre-emergence herbicidal action against ABUTH; assay type: in vivo, Abutilon theophrasti; details: Abutilon theophrasti, 504 h; for pest or weed control at 80 g/ha: scored visually after 3 weeks vs untreated controls (100% = plants have died, 0% = like control plants); for pest or weed control at 20 g/ha: dosage 20 g/ha, scored visually after 3 weeks vs untreated controls, 100% = plants have died, 0% = like control plants, read-out: Pre-emergence action against ABUTH (herbicidal activity in percent)
In short: (§1)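 Herbicidal effect was assessed 3 weeks after treatment by visual comparison with untreated controls, 100% denoting dead plants. Aqueous WP or EC preparations had been applied at 600 to 800 l/ha with 0.2% wetting agent to the soil covering freshly sown seeds.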

[2] = tested on: ALOMY; experiment: Pre-emergence herbicidal action against ALOMY; assay type: in vivo, Alopecurus myosuroides; details: Alopecurus myosuroides, 504 h, pre-emergence; for pest or weed control at 80 g/ha: scored visually after 3 weeks vs untreated controls (100% = plants have died, 0% = like control plants); for pest or weed control at 20 g/ha: scored visually after 3 weeks, 100% = plants have died, 0% = like control plants
In short: as §1

[3] = tested on: AMARE; experiment: Pre-emergence herbicidal action against AMARE; assay type: in vivo, Amaranthus retroflexus; details: Amaranthus retroflexus, 504 h, scored visually after 3 weeks vs untreated controls, 100% = plants have died, 0% = like control plants
In short: as §1

[4] = tested on: ECHCG; experiment: Pre-emergence herbicidal action against ECHCG; assay type: in vivo, Echinochloa crus-galli; details: Echinochloa crus-galli, 504 h
In short: as §1

[5] = tested on: LOLRI; experiment: Pre-emergence herbicidal action against LOLRI; assay type: in vivo, Lolium rigidum; details: Lolium rigidum, 504 h, 80 g/ha
In short: as §1

[6] = tested on: MATIN; experiment: Pre-emergence herbicidal action against MATIN; assay type: in vivo, Matricaria inodora; details: Tripleurospermum inodorum, 504 h; for pest or weed control at 20 g/ha: dosage 20 g/ha; for pest or weed control at 80 g/ha: dosage 80 g/ha
In short: as §1

[7] = tested on: PHBPU; experiment: Pre-emergence herbicidal action against PHBPU; assay type: in vivo, Pharbitis purpurea; details: Ipomoea purpurea, 504 h, dosage 80 g/ha
In short: as §1

[8] = tested on: POLCO; experiment: Pre-emergence herbicidal action against POLCO; assay type: in vivo, Polygonum convolvulus; details: Fallopia convolvulus, 504 h; for pest or weed control at 80 g/ha: dosage 80 g/ha
In short: as §1

[9] = tested on: SETVI; experiment: Pre-emergence herbicidal action against SETVI; assay type: in vivo, Setaria viridis; details: Setaria viridis, 504 h; for pest or weed control at 80 g/ha: dosage 80 g/ha
In short: as §1

[10] = tested on: VERPE; experiment: Pre-emergence herbicidal action against VERPE; assay type: in vivo, Veronica persica; details: Veronica persica, 504 h; for pest or weed control at 80 g/ha: dosage 80 g/ha
In short: as §1

[11] = tested on: VIOTR; experiment: Pre-emergence herbicidal action against VIOTR; assay type: in vivo, Viola tricolor; details: Viola tricolor, 504 h; for pest or weed control at 80 g/ha: dosage 80 g/ha
In short: as §1

[12] = tested on: DIGSA; experiment: Pre-emergence herbicidal action against DIGSA; assay type: in vivo, Digitaria sanguinalis; details: Digitaria sanguinalis, 504 h
In short: as §1

[13] = tested on: ABUTH; experiment: Post-emergence herbicidal action against ABUTH; assay type: in vivo, Abutilon theophrasti; details: Abutilon theophrasti, 504 h, visual assessment about 3 weeks after treatment vs untreated controls; for pest or weed control at 5 g/ha: dosage 5 g/ha; for pest or weed control at 20 g/ha: dosage 20 g/ha
In short: (§2)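 Herbicidal effect was scored visually in percent after about 3 weeks in the greenhouse. Plants had been raised in sandy loam and treated post-emergence at the one-leaf stage with formulated compound at 600 to 800 l/ha water plus 0.2% wetting agent.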

[14] = tested on: ALOMY; experiment: Post-emergence herbicidal action against ALOMY; assay type: in vivo, Alopecurus myosuroides; details: Alopecurus myosuroides, 504 h, visual assessment about 3 weeks after treatment vs untreated controls; for pest or weed control at 20 g/ha: dosage 20 g/ha
In short: as §2

[15] = tested on: AMARE; experiment: Post-emergence herbicidal action against AMARE; assay type: in vivo, Amaranthus retroflexus; details: Amaranthus retroflexus, 504 h, 20 g/ha, visual assessment about 3 weeks after treatment, 100% = plants have died, 0% = like control plants
In short: as §2

[16] = tested on: ECHCG; experiment: Post-emergence herbicidal action against ECHCG; assay type: in vivo, Echinochloa crus-galli; details: Echinochloa crus-galli, 504 h; for pest or weed control at 20 g/ha: dosage 20 g/ha
In short: as §2

[17] = tested on: MATIN; experiment: Post-emergence herbicidal action against MATIN; assay type: in vivo, Matricaria inodora; details: Tripleurospermum inodorum, 504 h; for pest or weed control at 20 g/ha: dosage 20 g/ha
In short: as §2

[18] = tested on: VERPE; experiment: Post-emergence herbicidal action against VERPE; assay type: in vivo, Veronica persica; details: Veronica persica, 504 h, 20 g/ha
In short: as §2

[19] = tested on: VIOTR; experiment: Post-emergence herbicidal action against VIOTR; assay type: in vivo, Viola tricolor; details: Viola tricolor, 504 h, 20 g/ha
In short: as §2

[20] = tested on: AVEFA; experiment: Pre-emergence herbicidal action against AVEFA; assay type: in vivo, Avena fatua; details: Avena fatua, 504 h; 80 g/ha, pre-emergence
In short: as §1

[21] = tested on: PHBPU; experiment: Post-emergence herbicidal action against PHBPU; assay type: in vivo, Pharbitis purpurea; details: Ipomoea purpurea, 504 h, dosage 20 g/ha
In short: as §2

[22] = tested on: SETVI; experiment: Post-emergence herbicidal action against SETVI; assay type: in vivo, Setaria viridis; details: Setaria viridis, 504 h
In short: as §2

| Structure (SMILES) | pest or weed control at 80 g/ha [1] [%] | pest or weed control at 20 g/ha [1] [%] | pest or weed control at 80 g/ha [2] [%] | pest or weed control at 20 g/ha [2] [%] | pest or weed control at 20 g/ha [3] [%] | pest or weed control at 80 g/ha [3] [%] | pest or weed control at 80 g/ha [4] [%] | pest or weed control at 80 g/ha [5] [%] | pest or weed control at 20 g/ha [6] [%] | pest or weed control at 80 g/ha [6] [%] | pest or weed control at 80 g/ha [7] [%] | pest or weed control at 80 g/ha [8] [%] | pest or weed control at 80 g/ha [9] [%] | pest or weed control at 80 g/ha [10] [%] | pest or weed control at 80 g/ha [11] [%] | pest or weed control at 5 g/ha [13] [%] | pest or weed control at 20 g/ha [13] [%] | pest or weed control at 20 g/ha [14] [%] | pest or weed control at 20 g/ha [15] [%] | pest or weed control at 20 g/ha [16] [%] | other results |
| --- | --- | --- | --- | --- | --- | --- | --- | --- | --- | --- | --- | --- | --- | --- | --- | --- | --- | --- | --- | --- | --- |
| CCCNC(=O)c1c(C(F)(F)F)ccc(C(=O)Nc2nnnn2C)c1C [Example 1-32] | 100 | 100 | 100 | 80 | 100 | 100 | 100 | 90 | 100 | 100 | 80 | 100 | 100 | 100 | 100 | 90 | 90 | 90 | 90 | 90 | pest or weed control at 20 g/ha ([4]; 20 g/ha): 80%; pest or weed control at 20 g/ha ([10]; dosage 20 g/ha): 80%; pest or weed control at 20 g/ha ([12]; dosage 20 g/ha): 100%; pest or weed control at 80 g/ha ([12]; dosage 80 g/ha): 100%; pest or weed control at 5 g/ha ([14]; dosage 5 g/ha): 80%; pest or weed control at 5 g/ha ([17]; dosage 5 g/ha): 80%; pest or weed control at 20 g/ha [17]: 90%; pest or weed control at 20 g/ha [18]: 90%; pest or weed control at 20 g/ha [19]: 80% |
| CCNC(=O)c1c(C(F)(F)F)ccc(C(=O)Nc2nnnn2C)c1CC [Example 1-272] | 100 | 90 | 100 | 90 | 100 | 100 | 100 | 80 | 90 | 100 | 80 | 90 | 100 | 90 | 100 | 80 | 90 | 90 | 100 | 90 | pest or weed control at 80 g/ha [20]: 90%; pest or weed control at 20 g/ha ([8]; dosage 20 g/ha): 80%; pest or weed control at 20 g/ha ([9]; dosage 20 g/ha): 80%; pest or weed control at 20 g/ha ([11]; dosage 20 g/ha): 90%; pest or weed control at 5 g/ha ([16]; dosage 5 g/ha): 80%; pest or weed control at 20 g/ha [17]: 90%; pest or weed control at 20 g/ha [21]: 90%; pest or weed control at 5 g/ha ([22]; dosage 5 g/ha): 90%; pest or weed control at 20 g/ha ([22]; dosage 20 g/ha): 90%; pest or weed control at 20 g/ha [18]: 80%; pest or weed control at 20 g/ha [19]: 90% |
